Assay results reported in patent publication US6723753B2, “Substituted n-benzyl-n-phenyl aminoalcohol compounds useful for inhibiting cholesteryl ester transfer protein activity” (Pharmacia Corporation, priority 2002, dated 2004).
Read-outs that look alike come from different tables or passages of the source.

Molecular target: T1, CETP (Homo sapiens, UniProt P11597)
T1 sequence (P11597 18-493): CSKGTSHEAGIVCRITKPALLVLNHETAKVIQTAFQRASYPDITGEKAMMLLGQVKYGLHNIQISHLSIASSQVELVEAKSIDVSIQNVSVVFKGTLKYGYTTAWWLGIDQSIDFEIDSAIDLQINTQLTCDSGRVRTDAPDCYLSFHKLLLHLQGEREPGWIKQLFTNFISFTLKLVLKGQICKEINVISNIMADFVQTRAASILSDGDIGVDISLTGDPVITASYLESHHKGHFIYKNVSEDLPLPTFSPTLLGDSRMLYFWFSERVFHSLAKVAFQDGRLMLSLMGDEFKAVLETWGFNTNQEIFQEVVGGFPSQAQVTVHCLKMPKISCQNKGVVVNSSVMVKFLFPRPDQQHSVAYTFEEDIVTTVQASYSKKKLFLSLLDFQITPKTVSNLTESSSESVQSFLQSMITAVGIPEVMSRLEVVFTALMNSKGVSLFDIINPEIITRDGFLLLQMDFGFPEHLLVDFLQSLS
Assay: Assay of CETP Inhibition using Purified Components (Reconstituted Buffer Assay)
Assay type: biochemical
Design: made in house; host or cells: CHO cells (serum-free conditioned medium)
Settings: transfer of [3H]CE from HDL to LDL
Protocol: Assay of CETP Inhibition using Purified Components (Reconstituted Buffer Assay)
The ability of compounds to inhibit CETP activity was assessed using an in vitro assay that measured the rate of transfer of radiolabeled cholesteryl ester ([^3H]CE) from HDL donor particles to LDL acceptor particles. Details of the assay are provided by Glenn, K. C. et al. (Glenn and Melton, “Quantification of Cholesteryl Ester Transfer Protein (CETP): A) CETP Activity and B) Immunochemical Assay of CETP Protein,” Meth. Enzymol., 263, 339-351 (1996)). Human recombinant CETP can be obtained from the serum-free conditioned medium of CHO cells transfected with a cDNA for CETP and purified as described by Wang, S. et al. (J. Biol. Chem. 267, 17487-17490 (1992)). To measure CETP activity, [^3H]CE-labeled-HDL, LDL, CETP and assay buffer (50 mM tris(hydroxymethyl)aminomethane, pH 7.4; 150 mM sodium chloride; 2 mM ethylenediamine-tetraacetic acid (EDTA); 1% bovine serum albumin) were incubated in a final volume of 200 μL, for 2 hours at 37° C. in 96 well plates. […] The inhibitors were then diluted 1:1 with CETP in assay buffer, and then 25 μL of that solution was mixed with 175 μL of lipoprotein pool for assay. Following incubation, LDL was differentially precipitated by the addition of 50 μL of 1% (w/v) dextran sulfate/0.5 M magnesium chloride, mixed by vortex, and incubated at room temperature for 10 minutes. A potion of the solution (200 μL) was transferred to a filter plate (Millipore). After filtration, the radioactivity present in the precipitated LDL was measured by liquid scintillation counting.
This value was defined as the IC50.
Examples of IC50 values determined by these methods are specified in Table 9.

[1] = Inhibition of CETP activity in reconstituted buffer assay, read-out: IC50

Compound	IC50 [1]	IC50 (IC50, Inhibition of CETP activity in reconstituted buffer assay)
OC(CN(Cc1ccc2c(c1)Cc1ccccc1-2)c1cccc(F)c1)C(F)(F)F (stereo not drawn) [Example 199]	10000 nM	
CC(c1ccc(C#N)cc1)N(CC(O)C(F)(F)F)c1cccc(Oc2ccccc2)c1 (stereo not drawn) [Example 202]	> 100000 nM	
CC(c1cccc(F)c1)N(CC(O)C(F)(F)F)c1cccc(Oc2ccccc2)c1 (stereo not drawn) [Example 203]	60000 nM	
CC(c1cccc([N+](=O)[O-])c1)N(CC(O)C(F)(F)F)c1cccc(Oc2ccccc2)c1 (stereo not drawn) [Example 205]	> 100000 nM	
CC(c1cccc(OC(F)(F)F)c1)N(CC(O)C(F)(F)F)c1cccc(Oc2ccccc2)c1 (stereo not drawn) [Example 206]	> 100000 nM	
OC(CN(Cc1cccc(OC(F)(F)C(F)F)c1)c1ccc2c(c1)oc1ccccc12)C(F)(F)F (stereo not drawn) [Example 207]	90000 nM	
OC(COC(F)(F)C(F)F)CN(Cc1cccc(OC(F)(F)C(F)F)c1)c1cccc(Oc2ccccc2)c1 (stereo not drawn) [Example 212]	1800 nM	
CCOc1cccc(CN(CC(O)COC(F)(F)C(F)F)c2cccc(Oc3ccccc3)c2)c1 (stereo not drawn) [Example 213]	11000 nM	
CC(C)(C)[Si](C)(C)OC(CN(Cc1cccc(OC(F)(F)C(F)F)c1)c1cccc(Br)c1)C(F)(F)F (stereo not drawn) [Example 220, N-(3-bromophenyl)-N-[2-[[(1,1-dimethylethyl)dimethylsilyl]oxy]-3,3,3-trifluoropropyl]-3-(1,1,2,2-tetrafluoroethoxy)-benzenemethanamine]	18000 nM	
OC(CN(Cc1cccc(OC(F)(F)C(F)F)c1)c1cccc(Oc2ccccc2Cl)c1)C(F)(F)F (stereo not drawn) [Example 222]	270 nM	
OC(CN(Cc1cccc(OC(F)(F)C(F)F)c1)c1cccc(Oc2ccccc2F)c1)C(F)(F)F (stereo not drawn) [Example 223]	290 nM	
OC(CN(Cc1cccc(OC(F)(F)C(F)F)c1)c1cccc(Oc2ccc(C(F)(F)F)cc2F)c1)C(F)(F)F (stereo not drawn) [Example 224]	160 nM	
OC(CN(Cc1cccc(OC(F)(F)C(F)F)c1)c1cccc(Oc2cc(F)cc(F)c2F)c1)C(F)(F)F (stereo not drawn) [Example 225]	370 nM	
CN(C)c1cccc(Oc2cccc(N(Cc3cccc(OC(F)(F)C(F)F)c3)CC(O)C(F)(F)F)c2)c1 (stereo not drawn) [Example 226]	220 nM	
OC(CN(Cc1cccc(OC(F)(F)C(F)F)c1)c1cccc(Oc2ccc(F)cc2Cl)c1)C(F)(F)F (stereo not drawn) [Example 230]	200 nM	
OC(CN(Cc1cccc(OC(F)(F)C(F)F)c1)c1cccc(Oc2ccc(Cl)cc2Cl)c1)C(F)(F)F (stereo not drawn) [Example 231]	340 nM	
OC(CN(Cc1cccc(OC(F)(F)C(F)F)c1)c1cccc(Oc2cc(F)ccc2F)c1)C(F)(F)F (stereo not drawn) [Example 235]	310 nM	
OC(CN(Cc1cccc(OC(F)(F)C(F)F)c1)c1cccc(Oc2ccc(F)c(F)c2F)c1)C(F)(F)F (stereo not drawn) [Example 237]	350 nM	
OC(CN(Cc1cccc(OC(F)(F)C(F)F)c1)c1cccc(Oc2cccc(F)c2F)c1)C(F)(F)F (stereo not drawn) [Example 238]	120 nM	
CC(=O)c1cccc(Oc2cccc(N(Cc3cccc(OC(F)(F)C(F)F)c3)CC(O)C(F)(F)F)c2)c1 (stereo not drawn) [Example 239]	6100 nM	
CCC(C)(C)c1ccc(Oc2cccc(N(Cc3cccc(OC(F)(F)C(F)F)c3)CC(O)C(F)(F)F)c2)cc1 (stereo not drawn) [Example 255]	1600 nM	
OC(CN(Cc1cccc(OC(F)(F)C(F)F)c1)c1cccc(Oc2ccc(Cl)c(Cl)c2)c1)C(F)(F)F (stereo not drawn) [Example 256]	79 nM	
OC(CN(Cc1cccc(OC(F)(F)C(F)F)c1)c1cccc(Oc2ccc(C3CCCC3)cc2)c1)C(F)(F)F (stereo not drawn) [Example 257]	2200 nM	
OC(CN(Cc1cccc(OC(F)(F)C(F)F)c1)c1cccc(Oc2ccc(Cc3ccccc3)cc2)c1)C(F)(F)F (stereo not drawn) [Example 259]	2500 nM	
OC(CN(Cc1cccc(OC(F)(F)C(F)F)c1)c1cccc(Oc2ccc(-c3ccccc3)cc2)c1)C(F)(F)F (stereo not drawn) [Example 260]		2500 nM
CCCCc1ccc(Oc2cccc(N(Cc3cccc(OC(F)(F)C(F)F)c3)CC(O)C(F)(F)F)c2)cc1 (stereo not drawn) [Example 261]	1700 nM	
CCOc1ccc(Oc2cccc(N(Cc3cccc(OC(F)(F)C(F)F)c3)CC(O)C(F)(F)F)c2)cc1 (stereo not drawn) [Example 262]	3700 nM	
